ChEMBL document CHEMBL4387741, “Optimization of novel reversible Bruton's tyrosine kinase inhibitors identified using Tethering-fragment-based screens” (Bioorg Med Chem, 2019)

Experiments:
[1] = target: Cyclin-dependent kinase 9 (Homo sapiens) (UniProt P50750); test: Inhibition of wild-type human full length CDK9 (M1 to F372 residues) expressed in bacterial expression system at 1 uM by Kinomescan method relative to control
[2] = target: Ephrin type-A receptor 1 (Homo sapiens) (UniProt P21709); test: Inhibition of wild-type human partial length EPHA1 (V588 to I913 residues) expressed in bacterial expression system at 1 uM by Kinomescan method relative to control
Chain of Ephrin type-A receptor 1 (Homo sapiens) (P21709 whole entry, the tested form may be a part): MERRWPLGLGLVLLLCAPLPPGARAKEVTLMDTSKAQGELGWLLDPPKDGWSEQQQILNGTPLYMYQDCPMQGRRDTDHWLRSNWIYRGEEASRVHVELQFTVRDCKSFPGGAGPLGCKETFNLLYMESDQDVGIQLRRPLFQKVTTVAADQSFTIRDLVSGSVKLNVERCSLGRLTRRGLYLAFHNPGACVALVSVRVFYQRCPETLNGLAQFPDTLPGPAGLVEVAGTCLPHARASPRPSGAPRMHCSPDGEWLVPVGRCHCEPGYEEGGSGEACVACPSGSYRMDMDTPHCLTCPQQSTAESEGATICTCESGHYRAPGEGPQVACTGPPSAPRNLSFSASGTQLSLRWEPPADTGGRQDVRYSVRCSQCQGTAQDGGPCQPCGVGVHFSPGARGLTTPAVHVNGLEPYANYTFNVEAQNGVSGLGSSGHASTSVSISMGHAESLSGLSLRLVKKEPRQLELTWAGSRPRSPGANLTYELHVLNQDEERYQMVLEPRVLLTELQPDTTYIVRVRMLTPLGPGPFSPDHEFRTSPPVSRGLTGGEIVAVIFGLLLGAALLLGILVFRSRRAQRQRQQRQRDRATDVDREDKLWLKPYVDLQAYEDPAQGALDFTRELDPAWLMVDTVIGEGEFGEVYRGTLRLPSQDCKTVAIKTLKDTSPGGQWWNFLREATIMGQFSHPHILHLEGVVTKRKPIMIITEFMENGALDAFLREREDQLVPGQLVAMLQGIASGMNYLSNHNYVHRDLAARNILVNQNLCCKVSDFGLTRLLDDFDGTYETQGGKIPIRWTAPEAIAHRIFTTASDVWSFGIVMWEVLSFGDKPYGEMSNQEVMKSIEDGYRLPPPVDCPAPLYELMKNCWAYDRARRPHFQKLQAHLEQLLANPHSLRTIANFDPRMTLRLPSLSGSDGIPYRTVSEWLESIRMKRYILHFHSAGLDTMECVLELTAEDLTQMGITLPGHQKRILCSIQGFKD

[3] = target: Ephrin type-B receptor 3 (Homo sapiens) (UniProt P54753); test: Inhibition of wild-type human partial length EPHB3 (Q599 to T928 residues) expressed in bacterial expression system at 1 uM by Kinomescan method relative to control
Chain of Ephrin type-B receptor 3 (Homo sapiens) (P54753 whole entry, the tested form may be a part): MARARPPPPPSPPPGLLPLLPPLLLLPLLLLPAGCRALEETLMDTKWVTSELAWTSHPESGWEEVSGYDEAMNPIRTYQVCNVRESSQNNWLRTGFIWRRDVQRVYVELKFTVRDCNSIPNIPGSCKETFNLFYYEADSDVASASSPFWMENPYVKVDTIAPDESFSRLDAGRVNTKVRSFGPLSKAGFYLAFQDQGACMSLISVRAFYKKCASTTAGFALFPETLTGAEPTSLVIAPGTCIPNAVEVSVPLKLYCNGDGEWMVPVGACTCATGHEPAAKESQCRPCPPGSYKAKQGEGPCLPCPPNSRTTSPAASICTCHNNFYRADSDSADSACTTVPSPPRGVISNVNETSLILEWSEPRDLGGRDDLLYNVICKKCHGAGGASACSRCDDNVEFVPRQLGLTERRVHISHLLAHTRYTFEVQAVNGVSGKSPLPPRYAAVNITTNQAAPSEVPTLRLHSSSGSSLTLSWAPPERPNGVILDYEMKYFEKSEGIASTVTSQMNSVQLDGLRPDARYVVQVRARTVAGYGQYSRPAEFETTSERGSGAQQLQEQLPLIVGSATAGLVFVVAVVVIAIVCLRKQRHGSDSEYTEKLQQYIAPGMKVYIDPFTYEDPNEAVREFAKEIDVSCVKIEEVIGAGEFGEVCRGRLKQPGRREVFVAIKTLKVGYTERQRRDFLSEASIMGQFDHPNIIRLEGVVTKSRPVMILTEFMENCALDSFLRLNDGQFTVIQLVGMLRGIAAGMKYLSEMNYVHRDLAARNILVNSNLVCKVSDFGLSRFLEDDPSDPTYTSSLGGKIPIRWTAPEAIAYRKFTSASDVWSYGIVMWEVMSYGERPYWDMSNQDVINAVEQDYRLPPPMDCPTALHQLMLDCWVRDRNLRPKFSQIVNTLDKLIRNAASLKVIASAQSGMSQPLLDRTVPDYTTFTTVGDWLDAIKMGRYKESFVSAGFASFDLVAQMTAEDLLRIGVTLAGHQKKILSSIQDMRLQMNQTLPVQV

[4] = target: Receptor-type tyrosine-protein kinase FLT3 (Homo sapiens) (UniProt P36888); test: Inhibition of wild-type human partial length FLT3 (V592 to Y969 residues) expressed in bacterial expression system at 1 uM by Kinomescan method relative to control
[5] = target: Homeodomain-interacting protein kinase 3 (Homo sapiens) (UniProt Q9H422); test: Inhibition of wild-type human partial length HIPK3 (M153 to N562 residues) expressed in mammalian expression system at 1 uM by Kinomescan method relative to control
[6] = target: Mitogen-activated protein kinase 9 (Homo sapiens) (UniProt P45984); test: Inhibition of wild-type human full length JNK2 (M1 to Q382 residues) expressed in mammalian expression system at 1 uM by Kinomescan method relative to control
[7] = target: Mitogen-activated protein kinase kinase kinase 1 (Homo sapiens) (UniProt Q13233); test: Inhibition of wild-type human partial length MAP3K1 (L1202 to W1512 residues) expressed in mammalian expression system at 1 uM by Kinomescan method relative to control
[8] = target: Serine/threonine-protein kinase MRCK alpha (Homo sapiens) (UniProt Q5VT25); test: Inhibition of wild-type human partial length MRCKA (L57 to V418 residues) expressed in bacterial expression system at 1 uM by Kinomescan method relative to control
[9] = target: Mitogen-activated protein kinase 13 (Homo sapiens) (UniProt O15264); test: Inhibition of wild-type human full length p38-delta (M1 to L365 residues) expressed in bacterial expression system at 1 uM by Kinomescan method relative to control
Chain of Mitogen-activated protein kinase 13 (Homo sapiens) (O15264 whole entry, the tested form may be a part, canonical isoform): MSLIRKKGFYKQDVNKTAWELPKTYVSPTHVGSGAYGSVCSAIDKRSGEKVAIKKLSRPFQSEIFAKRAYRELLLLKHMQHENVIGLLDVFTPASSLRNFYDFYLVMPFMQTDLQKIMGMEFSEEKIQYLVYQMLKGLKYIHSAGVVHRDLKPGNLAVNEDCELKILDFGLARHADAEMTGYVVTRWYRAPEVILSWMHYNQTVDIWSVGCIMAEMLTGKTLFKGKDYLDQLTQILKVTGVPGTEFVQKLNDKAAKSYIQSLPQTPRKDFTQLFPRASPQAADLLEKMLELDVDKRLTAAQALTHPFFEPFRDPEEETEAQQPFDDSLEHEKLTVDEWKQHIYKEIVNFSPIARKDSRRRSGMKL

[10] = target: Phosphatidylinositol 4,5-bisphosphate 3-kinase catalytic subunit delta isoform (Homo sapiens) (UniProt O00329); test: Inhibition of wild-type human partial length PIK3CD (R108 to Q1044 residues) expressed in mammalian expression system at 1 uM by Kinomescan method relative to control
[11] = target: 1-phosphatidylinositol 3-phosphate 5-kinase (Homo sapiens) (UniProt Q9Y2I7); test: Inhibition of wild-type human partial length PIKFYVE (F1512 to C2098 residues) expressed in mammalian expression system at 1 uM by Kinomescan method relative to control
[12] = target: Ribosomal protein S6 kinase alpha-1 (Homo sapiens) (UniProt Q15418); test: Inhibition of wild-type human partial length N-terminal RSK1 Kinase domain 1 (M1 to E388 residues) expressed in bacterial expression system at 1 uM by Kinomescan method relative to control
[13] = target: Testis-specific serine/threonine-protein kinase 1 (Homo sapiens) (UniProt Q9BXA7); test: Inhibition of wild-type human full length TSSK1B (M1 to Q367 residues) expressed in bacterial expression system at 1 uM by Kinomescan method relative to control
[14] = target: RAC-beta serine/threonine-protein kinase (Homo sapiens) (UniProt P31751); test: Inhibition of wild-type human partial length AKT2 expressed in bacterial expression system at 10 uM by Kinomescan method relative to control
Chain of RAC-beta serine/threonine-protein kinase (Homo sapiens) (P31751 whole entry, the tested form may be a part): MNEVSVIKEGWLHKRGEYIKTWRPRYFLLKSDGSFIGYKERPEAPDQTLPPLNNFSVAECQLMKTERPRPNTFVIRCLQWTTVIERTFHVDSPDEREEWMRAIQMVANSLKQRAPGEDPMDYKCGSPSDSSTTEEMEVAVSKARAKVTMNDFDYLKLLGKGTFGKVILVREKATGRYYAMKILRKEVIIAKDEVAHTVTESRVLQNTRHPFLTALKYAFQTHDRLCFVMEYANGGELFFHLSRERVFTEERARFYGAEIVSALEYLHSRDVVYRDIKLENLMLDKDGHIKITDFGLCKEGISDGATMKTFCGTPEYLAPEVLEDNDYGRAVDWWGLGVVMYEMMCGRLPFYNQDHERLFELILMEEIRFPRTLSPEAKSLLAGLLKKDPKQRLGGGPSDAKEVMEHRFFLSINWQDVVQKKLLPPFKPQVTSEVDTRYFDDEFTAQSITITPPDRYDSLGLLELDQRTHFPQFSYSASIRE

[15] = target: Cyclin-dependent kinase 5 (Homo sapiens) (UniProt Q00535); test: Inhibition of wild-type human full length CDK5 (M1 to P292 residues) expressed in bacterial expression system at 10 uM by Kinomescan method relative to control
Chain of Cyclin-dependent kinase 5 (Homo sapiens) (Q00535 whole entry, looked up, the tested form may be a part): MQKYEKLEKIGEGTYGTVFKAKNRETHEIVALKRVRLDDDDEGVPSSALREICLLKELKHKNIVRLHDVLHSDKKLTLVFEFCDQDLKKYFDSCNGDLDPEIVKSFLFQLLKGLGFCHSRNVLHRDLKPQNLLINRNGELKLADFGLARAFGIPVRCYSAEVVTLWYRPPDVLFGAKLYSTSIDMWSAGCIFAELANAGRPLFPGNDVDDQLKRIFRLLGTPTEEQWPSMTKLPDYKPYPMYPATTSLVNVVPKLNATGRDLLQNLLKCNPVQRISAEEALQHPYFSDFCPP

[16] = target: Epithelial discoidin domain-containing receptor 1 (Homo sapiens) (UniProt Q08345); test: Inhibition of wild-type human partial length DDR1 (R565 to V876 residues) expressed in bacterial expression system at 10 uM by Kinomescan method relative to control
[17] = target: Serine/threonine-protein kinase 17A (Homo sapiens) (UniProt Q9UEE5); test: Inhibition of wild-type human partial length DRAK1 (R32 to E363 residues) expressed in bacterial expression system at 10 uM by Kinomescan method relative to control
Chain of Serine/threonine-protein kinase 17A (Homo sapiens) (Q9UEE5 whole entry, the tested form may be a part): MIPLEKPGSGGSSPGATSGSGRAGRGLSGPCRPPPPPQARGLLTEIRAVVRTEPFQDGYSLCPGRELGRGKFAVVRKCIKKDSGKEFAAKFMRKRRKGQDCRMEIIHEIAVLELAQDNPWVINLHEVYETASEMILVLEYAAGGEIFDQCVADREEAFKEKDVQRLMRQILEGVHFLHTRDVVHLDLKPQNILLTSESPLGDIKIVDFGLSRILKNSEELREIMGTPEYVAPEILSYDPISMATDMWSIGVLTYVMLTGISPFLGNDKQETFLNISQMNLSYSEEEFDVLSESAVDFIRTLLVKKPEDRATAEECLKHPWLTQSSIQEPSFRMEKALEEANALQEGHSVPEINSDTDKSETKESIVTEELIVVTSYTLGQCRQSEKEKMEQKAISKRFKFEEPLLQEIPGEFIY

[18] = target: Epidermal growth factor receptor (Homo sapiens) (UniProt P00533); test: Inhibition of wild-type human partial length EGFR (R669 to V1011 residues) expressed in bacterial expression system at 10 uM by Kinomescan method relative to control
[19] = target: Ephrin type-A receptor 4 (Homo sapiens) (UniProt P54764); test: Inhibition of wild-type human partial length EPHA4 (T601 to R897 residues) expressed in bacterial expression system at 10 uM by Kinomescan method relative to control
Chain of Ephrin type-A receptor 4 (Homo sapiens) (P54764 whole entry, the tested form may be a part): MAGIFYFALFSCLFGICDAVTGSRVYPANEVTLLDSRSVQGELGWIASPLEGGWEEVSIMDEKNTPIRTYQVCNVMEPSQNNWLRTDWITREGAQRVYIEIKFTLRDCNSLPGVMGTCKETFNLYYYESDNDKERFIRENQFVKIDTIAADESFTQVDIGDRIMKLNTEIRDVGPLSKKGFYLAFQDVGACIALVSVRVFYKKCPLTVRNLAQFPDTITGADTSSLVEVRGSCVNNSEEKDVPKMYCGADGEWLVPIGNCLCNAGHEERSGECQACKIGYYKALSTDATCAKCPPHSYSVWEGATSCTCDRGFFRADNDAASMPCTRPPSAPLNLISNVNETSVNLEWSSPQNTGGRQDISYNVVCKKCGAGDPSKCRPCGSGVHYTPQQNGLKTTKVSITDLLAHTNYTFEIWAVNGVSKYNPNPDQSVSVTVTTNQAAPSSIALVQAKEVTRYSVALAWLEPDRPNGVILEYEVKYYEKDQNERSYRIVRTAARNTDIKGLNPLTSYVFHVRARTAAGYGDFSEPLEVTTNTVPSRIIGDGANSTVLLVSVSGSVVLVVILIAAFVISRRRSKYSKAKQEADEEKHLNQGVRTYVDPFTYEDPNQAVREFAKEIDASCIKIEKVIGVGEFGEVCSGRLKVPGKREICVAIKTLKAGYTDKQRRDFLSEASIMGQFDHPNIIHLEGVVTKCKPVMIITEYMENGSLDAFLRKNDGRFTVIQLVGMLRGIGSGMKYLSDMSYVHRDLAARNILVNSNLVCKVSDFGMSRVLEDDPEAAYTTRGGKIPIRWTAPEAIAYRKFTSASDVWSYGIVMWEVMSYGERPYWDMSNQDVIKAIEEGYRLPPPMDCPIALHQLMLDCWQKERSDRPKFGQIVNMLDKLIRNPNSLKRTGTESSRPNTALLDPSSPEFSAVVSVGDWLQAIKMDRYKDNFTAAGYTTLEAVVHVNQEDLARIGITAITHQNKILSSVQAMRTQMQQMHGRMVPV

[20] = target: Vascular endothelial growth factor receptor 1 (Homo sapiens) (UniProt P17948); test: Inhibition of wild-type human partial length FLT1 (R781 to F1239 residues) expressed in bacterial expression system at 10 uM by Kinomescan method relative to control
[21] = tested on: Mast/stem cell growth factor receptor Kit (Homo sapiens), P10721 [UNDEFINED MUTATION]; test: Inhibition of human partial length KIT V559D/V654 double mutant (Y545 to D952 residues) expressed in bacterial expression system at 10 uM by Kinomescan method relative to control
[22] = target: LIM domain kinase 2 (Homo sapiens) (UniProt P53671); test: Inhibition of wild-type human full length LIMK2 (M1 to P638 residues) expressed in bacterial expression system at 10 uM by Kinomescan method relative to control
[23] = target: MAP kinase-activated protein kinase 5 (Homo sapiens) (UniProt Q8IW41); test: Inhibition of wild-type human partial length MAPKAPK5 (M1 to D322 residues) expressed in mammalian expression system at 10 uM by Kinomescan method relative to control
Chain of MAP kinase-activated protein kinase 5 (Homo sapiens) (Q8IW41 whole entry, the tested form may be a part): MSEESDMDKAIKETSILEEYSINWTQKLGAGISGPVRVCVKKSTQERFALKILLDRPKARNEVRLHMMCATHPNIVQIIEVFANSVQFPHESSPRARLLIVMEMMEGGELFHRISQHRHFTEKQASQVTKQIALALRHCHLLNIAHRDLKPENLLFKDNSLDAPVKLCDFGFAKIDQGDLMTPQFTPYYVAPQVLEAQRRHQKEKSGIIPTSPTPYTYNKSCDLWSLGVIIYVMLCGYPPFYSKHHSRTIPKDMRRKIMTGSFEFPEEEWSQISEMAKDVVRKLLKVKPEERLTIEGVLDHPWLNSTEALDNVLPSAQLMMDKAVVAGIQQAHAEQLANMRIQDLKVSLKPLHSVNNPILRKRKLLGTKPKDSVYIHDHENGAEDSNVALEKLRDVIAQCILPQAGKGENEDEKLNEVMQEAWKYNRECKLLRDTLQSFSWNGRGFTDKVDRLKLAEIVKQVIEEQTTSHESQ

[24] = target: Dual specificity mitogen-activated protein kinase kinase 2 (Homo sapiens) (UniProt P36507); test: Inhibition of wild-type human full length MEK2 (M1 to V400 residues) expressed in mammalian expression system at 10 uM by Kinomescan method relative to control
[25] = target: Angiopoietin-1 receptor (Homo sapiens) (UniProt Q02763); test: Inhibition of wild-type human partial length TIE2 (N804 to T1112 residues) expressed in bacterial expression system at 10 uM by Kinomescan method relative to control
[26] = target: Serine/threonine-protein kinase 32B (Homo sapiens) (UniProt Q9NY57); test: Inhibition of wild-type human full length YANK2 (M1 to S414 residues) expressed in bacterial expression system at 10 uM by Kinomescan method relative to control
[27] = Solubility of the compound at pH 6.8; type: physicochemical; conditions: buffer

## O=C(Nc1cccc([C@@H]2CN(c3ncnc4[nH]ccc34)CCN2CCO)c1)Nc1c(F)cccc1N1CCCC1
[1]
  inhibition: 100%
[2]
  inhibition: 100%
[3]
  inhibition: 100%
[4]
  inhibition: 52%
[5]
  inhibition: 86%
[6]
  inhibition: 100%
[7]
  inhibition: 70%
[8]
  inhibition: 100%
[9]
  inhibition: 100%
[10]
  inhibition: 100%
[11]
  inhibition: 91%
[12]
  inhibition: 90%
[13]
  inhibition: 100%

## O=C(Nc1cccc([C@H]2CCCN(c3ncnc4[nH]ccc34)C2)c1)Nc1ccccc1N1CCCC1
[14]
  inhibition: 100%
[15]
  inhibition: 92%
[16]
  inhibition: 3.5%
[17]
  inhibition: 46%
[18]
  inhibition: 88%
[19]
  inhibition: 98%
[20]
  inhibition: 2.2%
[21]
  inhibition: 26%
[22]
  inhibition: 100%
[23]
  inhibition: 100%
[24]
  inhibition: 17%
[25]
  inhibition: 75%
[26]
  inhibition: 100%
[27]
  solubility: < 1 µg/mL
